Key:
Test in all cases: Test B pre-/postemergence plant response
Format in all cases: in vivo
[1] = tested on: downy bromegrass (Bromus tectorum)
Summary of the method: (§1)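 Plants treated either at seeding (loam/sand soil) or postemergence at 2 to 18 cm height, using a surfactant-containing non-phytotoxic solvent formulation. Evaluation was visual after 13 to 15 days, 0 to 100 scale relative to controls.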

[2] = tested on: Italian ryegrass (Lolium multiflorum)
Summary of the method: as §1

[3] = tested on: kochia (Kochia scoparia)
Summary of the method: as §1

[4] = tested on: bermudagrass (Cynodon dactylon)
Summary of the method: as §1

[5] = tested on: morningglory (Ipomoea coccinea)
Summary of the method: as §1

[6] = tested on: large crabgrass (Digitaria sanguinalis)
Summary of the method: as §1

[7] = tested on: wild oat (Avena fatua)
Summary of the method: as §1

[8] = tested on: cocklebur (Xanthium strumarium)
Summary of the method: as §1

[9] = tested on: ragweed (common ragweed, Ambrosia elatior)
Summary of the method: as §1

[10] = tested on: wheat (Triticum aestivum)
Summary of the method: as §1

[11] = tested on: Surinam grass (Brachiaria decumbens)
Summary of the method: as §1

[12] = tested on: woolly cupgrass (Eriochloa villosa)
Summary of the method: as §1

[13] = tested on: blackgrass (Alopecurus myosuroides)
Summary of the method: as §1

[14] = 250 g ai/ha, Preemergence, 0 to 100 scale
[15] = Postemergence, 31 g ai/ha, scale 0 to 100 (0 no effect, 100 complete control)
[16] = Postemergence, 62 g ai/ha, scale 0 (no effect) to 100 (complete control), 13 to 15 days
[17] = Postemergence, 125 g ai/ha, visual rating after 13 to 15 days, scale 0 (no effect) to 100 (complete control)
[18] = Postemergence, 250 g ai/ha, scale 0 to 100
[19] = Preemergence, 31 g ai/ha, scale 0 to 100 (0 no effect, 100 complete control)
[20] = Preemergence, 62 g ai/ha, scale 0 to 100 (0 no effect, 100 complete control)
[21] = Preemergence, 125 g ai/ha, 0 to 100 scale
[22] = Postemergence, 31 g ai/ha, 0 to 100 scale (0 no effect, 100 complete control)
[23] = Postemergence, 62 g ai/ha, scale 0 to 100 (0 no effect, 100 complete control)
[24] = Postemergence, 125 g ai/ha, scale 0 to 100 (0 no effect, 100 complete control)
[25] = Postemergence, 250 g ai/ha, scale 0 to 100 (0 no effect, 100 complete control), 13 to 15 days

O=C1CCCC(O)=C1C(=O)c1cnc(-c2ccccc2)n(-c2ccccc2F)c1=O [Compound 26]
15: Plant response rating, Bromegrass, Downy [1, 16]
0: Plant response rating, Bromegrass, Downy [1, 19] | Plant response rating, Bromegrass, Downy [1, 20] | Bromegrass, Downy plant response rating [1, 21] | Plant response rating, Ryegrass, Italian [2, 14] | Plant response rating, Ryegrass, Italian [2, 15] | Plant response rating, Ryegrass, Italian [2, 16] | Plant response rating, Ryegrass, Italian [2, 19] | Plant response rating, Ryegrass, Italian [2, 20] | Ryegrass, Italian plant response rating [2, 21] | Plant response rating, Crabgrass, Large [6, 19] | Plant response rating, Oat, Wild [7, 19] | Plant response rating, Oat, Wild [7, 20] | Oat, Wild plant response rating [7, 21] | Plant response rating, Wheat [10, 14] | Plant response rating, Wheat [10, 15] | Plant response rating, Wheat [10, 16] | Plant response rating, Wheat [10, 19] | Plant response rating, Wheat [10, 20] | Wheat plant response rating [10, 21] | Plant response rating, Surinam Grass [11, 19] | Plant response rating, Cupgrass, Woolly [12, 19] | Plant response rating, Blackgrass [13, 15] | Plant response rating, Blackgrass [13, 16] | Plant response rating, Blackgrass [13, 19] | Plant response rating, Blackgrass [13, 20] | Blackgrass plant response rating [13, 21]
30: Wheat plant response rating [10, 18] | Plant response rating, Surinam Grass [11, 15]
60: Plant response rating, Bermudagrass ([4]; Postemergence, 125 g ai/ha, scale 0 to 100 (0 no effect, 100 complete control), 13 to 15 days) | Oat, Wild plant response rating [7, 18] | Plant response rating, Surinam Grass [11, 17] | Surinam Grass plant response rating [11, 18]
80: Plant response rating, Kochia [3, 19] | Crabgrass, Large plant response rating [6, 18] | Plant response rating, Cocklebur [8, 15] | Plant response rating, Cocklebur [8, 16]
10: Plant response rating, Bromegrass, Downy [1, 14] | Plant response rating, Bromegrass, Downy [1, 15] | Plant response rating, Ryegrass, Italian [2, 17] | Plant response rating, Cocklebur [8, 19] | Plant response rating, Blackgrass [13, 14] | Plant response rating, Blackgrass [13, 17]
100: Plant response rating, Kochia [3, 14] | Plant response rating, Kochia [3, 20] | Kochia plant response rating [3, 21] | Plant response rating, Bermudagrass [4, 14] | Plant response rating, Morningglory [5, 14] | Plant response rating, Morningglory [5, 19] | Plant response rating, Morningglory [5, 20] | Morningglory plant response rating [5, 21] | Plant response rating, Crabgrass, Large [6, 14] | Crabgrass, Large plant response rating [6, 21] | Cocklebur plant response rating [8, 18] | Plant response rating, Ragweed [9, 14] | Ragweed plant response rating [9, 18]
70: Plant response rating, Bermudagrass [4, 20] | Plant response rating, Ragweed [9, 15]
98: Bermudagrass plant response rating [4, 21] | Plant response rating, Cocklebur [8, 14] | Plant response rating, Ragweed [9, 17]
95: Plant response rating, Cocklebur [8, 17] | Ragweed plant response rating [9, 21]
45: Ryegrass, Italian plant response rating [2, 18] | Plant response rating, Oat, Wild [7, 17]
20: Plant response rating, Bromegrass, Downy [1, 17]
65: Plant response rating, Ragweed [9, 19]
50: Plant response rating, Bermudagrass [4, 16] | Plant response rating, Morningglory [5, 15] | Plant response rating, Morningglory [5, 16] | Plant response rating, Crabgrass, Large [6, 16] | Plant response rating, Crabgrass, Large [6, 17] | Cupgrass, Woolly plant response rating [12, 21]
40: Bromegrass, Downy plant response rating [1, 18] | Plant response rating, Bermudagrass [4, 15] | Plant response rating, Crabgrass, Large [6, 15] | Plant response rating, Crabgrass, Large [6, 20] | Plant response rating, Oat, Wild [7, 15] | Plant response rating, Oat, Wild [7, 16] | Plant response rating, Cocklebur [8, 20] | Plant response rating, Surinam Grass [11, 16] | Plant response rating, Cupgrass, Woolly [12, 15] | Plant response rating, Cupgrass, Woolly [12, 16] | Blackgrass plant response rating [13, 18]
90: Plant response rating, Surinam Grass [11, 14] | Surinam Grass plant response rating [11, 21]
75: Bermudagrass plant response rating [4, 18] | Plant response rating, Morningglory [5, 17] | Morningglory plant response rating [5, 18]
85: Cocklebur plant response rating [8, 21] | Plant response rating, Ragweed [9, 16] | Plant response rating, Ragweed [9, 20] | Plant response rating, Cupgrass, Woolly [12, 14] | Plant response rating, Cupgrass, Woolly [12, 17] | Cupgrass, Woolly plant response rating [12, 18]
5: Plant response rating, Bermudagrass [4, 19] | Plant response rating, Oat, Wild [7, 14] | Plant response rating, Wheat [10, 17] | Plant response rating, Surinam Grass [11, 20] | Plant response rating, Cupgrass, Woolly [12, 20]

COCCn1c(-c2cccc(C)c2)ncc(C(=O)C2=C(O)C3CCC(C3)C2=O)c1=O (stereo not shown) [Compound 233]
35: Plant response rating, Oat, Wild [7, 23]
70: Plant response rating, Kochia [3, 22]
85: Plant response rating, Kochia [3, 23] | Plant response rating, Ragweed [9, 23] | Plant response rating, Surinam Grass [11, 23] | Plant response rating, Cupgrass, Woolly [12, 23]
90: Plant response rating, Crabgrass, Large [6, 23] | Plant response rating, Cocklebur [8, 22]
40: Plant response rating, Bromegrass, Downy [1, 22] | Plant response rating, Bromegrass, Downy [1, 23]
5: Plant response rating, Blackgrass [13, 22]
65: Plant response rating, Morningglory [5, 22] | Plant response rating, Wheat [10, 25]
10: Plant response rating, Wheat [10, 22]
60: Plant response rating, Bromegrass, Downy [1, 25] | Plant response rating, Ryegrass, Italian [2, 25] | Plant response rating, Oat, Wild [7, 25]
95: Plant response rating, Bermudagrass [4, 22] | Plant response rating, Bermudagrass [4, 23]
80: Plant response rating, Morningglory [5, 23] | Plant response rating, Crabgrass, Large [6, 22] | Plant response rating, Ragweed [9, 22] | Plant response rating, Surinam Grass [11, 22] | Plant response rating, Cupgrass, Woolly [12, 22]
50: Plant response rating, Bromegrass, Downy [1, 24] | Plant response rating, Blackgrass [13, 25]
100: Plant response rating, Bermudagrass [4, 24] | Plant response rating, Bermudagrass [4, 25] | Plant response rating, Morningglory [5, 25] | Plant response rating, Crabgrass, Large [6, 25] | Plant response rating, Cocklebur [8, 23] | Plant response rating, Cocklebur [8, 24] | Plant response rating, Cocklebur [8, 25] | Plant response rating, Surinam Grass [11, 25] | Plant response rating, Cupgrass, Woolly [12, 24] | Plant response rating, Cupgrass, Woolly [12, 25]
98: Plant response rating, Morningglory [5, 24] | Plant response rating, Crabgrass, Large [6, 24] | Plant response rating, Ragweed [9, 25]
45: Plant response rating, Ryegrass, Italian [2, 23]
30: Plant response rating, Ryegrass, Italian [2, 22] | Plant response rating, Oat, Wild [7, 22] | Plant response rating, Wheat [10, 23] | Plant response rating, Blackgrass [13, 23] | Plant response rating, Blackgrass [13, 24]
